From patent US9107870B2, “Angiotensin peptides in treating marfan syndrome and related disorders” (TARIX PHARMACEUTICALS LTD, priority 2013, dated 2015)
“Also recorded” adds a separate entry of the source.

Tests used:
wild-type mice = assay: Aortic root growth in wild-type mice by in vivo echocardiography; conditions: 500 μg/kg/day subcutaneous daily for 60 days, compared to wild type mice treated with placebo, FIG. 1
Source text: (§1) In this Example, a total of 20 mice were used, with 8 mice being wild-type and 12 being Fbn1^C1039G+ mice, also referred to as “Marfan mice”, that are each […] for a fibrillin-1 (Fbn1) allele encoding a cysteine substitution, Cys1039Gly (C1039G), in an epidermal growth factor-like domain of Fbn1 (Fbn1^C1039G/+).
In order to determine the effects of angiotensin (1-7) peptides, here TXA127, on the normal course of disease development, both wild-type and Marfan mice were each separated into two groups once the mice reached 2 months of age. In each of the wild-type mice and Marfan mice, the placebo control group received daily subcutaneous saline injections for 60 days, while the TXA127 group received daily subcutaneous injections of TXA127 at a dose of 500 μg/kg/day for 60 days.
The primary endpoint of this study was degree of aortic growth observed over the 60 day treatment period, as measured by in vivo echocardiography. A baseline echocardiogram was performed just prior to the beginning of the treatment period and then again just prior to sacrifice. After the 60 day treatment period, mice were sacrificed and tissue samples were taken for histological and other analysis.

[1] = system: Fbn1^C1039G/+ mice (Marfan mice); assay: Aortic root growth in Marfan mice by in vivo echocardiography; conditions: 500 μg/kg/day subcutaneous daily for 60 days, compared to Marfan mice treated with placebo, FIG. 1
Source text: as §1
The Fbn1C1039G mice are a well-accepted model of Marfan Syndrome and the Fbn1 mutation is the most common class of mutation causing Marfan Syndrome. Typically, the aortic root in Fbn1C1039G mice undergoes progressive dilatation, evident as early as 2 weeks of age. […] This observed size difference generally becomes more pronounced over time. […] In addition, Fbn1C1039G mice show increased collagen deposition, which is an indirect marker of increased TGF-β signaling.
In order to determine the effects of angiotensin (1-7) peptides, here TXA127, on the normal course of disease development, both wild-type and Marfan mice were each separated into two groups once the mice reached 2 months of age. […]
The primary endpoint of this study was degree of aortic growth observed over the 60 day treatment period, as measured by in vivo echocardiography. […]

In the case of “Asp^1-Arg^2-Val^3-Tyr^4-Ile^5-His^6-Pro^7 (DRVYIHP) [TXA127]”, the aortic root growth (wild-type mice) is reported as “no statistically significant effect” and the “degree of aortic root growth” value [1] is reported as “highly significant reduction; also recorded: essentially eliminated”.
